Test results: ChEMBL document CHEMBL5331098, “Nanomolar β-glucosidase and β-galactosidase inhibition by enantiomeric α-1-C-alkyl-1,4-dideoxy-1,4-imino-arabinitol derivatives” (Eur J Med Chem, 2023)
pIC50: −log10 of the molar value.

Experiments:
[1] = Inhibition of bovine liver beta-galactosidase assessed as reduction of p-nitrophenol release using p-nitrophenyl glycoside as substrate by spectrophotometric analysis; design: species or system Bos taurus
[2] = Inhibition of snail beta-mannosidase assessed as reduction of p-nitrophenol release using p-nitrophenyl glycoside as substrate by spectrophotometric analysis; design: species or system Helix pomatia
[3] = molecular target: T1, Alpha-mannosidase (Canavalia ensiformis) (UniProt C0HJB3); assay: Inhibition of jack bean alpha-mannosidase assessed as reduction of p-nitrophenol release using p-nitrophenyl glycoside as substrate at 1000 uM by spectrophotometric analysis relative to control
T1 sequence (whole entry): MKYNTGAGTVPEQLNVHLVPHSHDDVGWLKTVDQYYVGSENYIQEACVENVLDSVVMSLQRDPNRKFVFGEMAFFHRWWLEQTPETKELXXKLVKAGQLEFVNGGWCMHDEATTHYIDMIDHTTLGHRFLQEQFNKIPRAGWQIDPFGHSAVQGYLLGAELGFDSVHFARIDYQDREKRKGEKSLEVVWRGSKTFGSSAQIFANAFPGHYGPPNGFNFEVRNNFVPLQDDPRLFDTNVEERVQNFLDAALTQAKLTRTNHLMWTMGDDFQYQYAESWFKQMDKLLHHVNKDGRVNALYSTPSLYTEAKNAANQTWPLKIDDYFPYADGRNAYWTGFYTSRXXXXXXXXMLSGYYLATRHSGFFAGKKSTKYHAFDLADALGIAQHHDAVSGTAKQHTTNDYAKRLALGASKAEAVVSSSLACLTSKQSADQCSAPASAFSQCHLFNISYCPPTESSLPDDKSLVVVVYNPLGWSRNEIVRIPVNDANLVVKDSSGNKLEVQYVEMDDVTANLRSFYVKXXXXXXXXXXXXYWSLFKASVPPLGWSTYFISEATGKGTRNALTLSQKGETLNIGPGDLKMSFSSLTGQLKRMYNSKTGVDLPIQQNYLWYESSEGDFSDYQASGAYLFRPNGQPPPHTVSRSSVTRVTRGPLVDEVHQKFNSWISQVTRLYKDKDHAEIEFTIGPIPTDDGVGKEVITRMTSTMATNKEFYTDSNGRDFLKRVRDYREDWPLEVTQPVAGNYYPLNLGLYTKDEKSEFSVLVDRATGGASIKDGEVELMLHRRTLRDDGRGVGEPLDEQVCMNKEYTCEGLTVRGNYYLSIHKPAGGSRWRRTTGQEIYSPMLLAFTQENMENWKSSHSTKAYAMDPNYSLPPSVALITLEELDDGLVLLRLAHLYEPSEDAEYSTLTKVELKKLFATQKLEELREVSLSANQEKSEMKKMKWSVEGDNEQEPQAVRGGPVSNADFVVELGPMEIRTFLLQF

[4] = Inhibition of Aspergillus niger amyloglucosidase assessed as reduction of p-nitrophenol release using p-nitrophenyl-glycoside as substrate by spectrophotometric analysis
[5] = molecular target: Alpha-galactosidase (Coffea arabica) (UniProt Q42656); assay: Inhibition of coffee beans alpha-galactosidase assessed as reduction of p-nitrophenol release using p-nitrophenyl glycoside as substrate at 1000 uM by spectrophotometric analysis relative to control
[6] = Inhibition of rat intestinal maltase assessed as D-glucose release using maltose as substrate at pH 6.8 by colorimetric method
[7] = Inhibition of almond beta-glucosidase assessed as reduction of p-nitrophenol release using p-nitrophenyl glycoside as substrate by spectrophotometric analysis; design: species or system Prunus dulcis
[8] = molecular target: Beta-glucuronidase (Escherichia coli (strain K12), UniProt P05804); assay: Inhibition of Escherichia coli beta-glucuronidase assessed as reduction of p-nitrophenol release using p-nitrophenyl-glycoside as substrate by spectrophotometric analysis
[9] = molecular target: Alpha-glucosidase (Saccharomyces cerevisiae S288c, UniProt P53341+P38158+P07265); assay: Inhibition of yeast alpha-glucosidase assessed as reduction of p-nitrophenol release using p-nitrophenyl glycoside as substrate by spectrophotometric analysis; type: protein assay
[10] = test system: Penicillium decumbens; assay: Inhibition of Penicillium decumbens alpha-L-rhamnosidase assessed as reduction of p-nitrophenol release using p-nitrophenyl-glycoside as substrate at 1000 uM by spectrophotometric analysis relative to control
[11] = species on record: Sus scrofa; assay: Inhibition of porcine kidney alpha/alpha-trehalase assessed as reduction of p-nitrophenol release using p-nitrophenyl glycoside as substrate at 1000 uM by spectrophotometric analysis relative to control
[12] = molecular target: T2, Tissue alpha-L-fucosidase (Bos taurus) (UniProt Q2KIM0); assay: Inhibition of bovine kidney alpha-L-fucosidase assessed as reduction of p-nitrophenol release using p-nitrophenyl glycoside as substrate at 1000 uM by spectrophotometric analysis relative to control
T2 sequence (whole entry): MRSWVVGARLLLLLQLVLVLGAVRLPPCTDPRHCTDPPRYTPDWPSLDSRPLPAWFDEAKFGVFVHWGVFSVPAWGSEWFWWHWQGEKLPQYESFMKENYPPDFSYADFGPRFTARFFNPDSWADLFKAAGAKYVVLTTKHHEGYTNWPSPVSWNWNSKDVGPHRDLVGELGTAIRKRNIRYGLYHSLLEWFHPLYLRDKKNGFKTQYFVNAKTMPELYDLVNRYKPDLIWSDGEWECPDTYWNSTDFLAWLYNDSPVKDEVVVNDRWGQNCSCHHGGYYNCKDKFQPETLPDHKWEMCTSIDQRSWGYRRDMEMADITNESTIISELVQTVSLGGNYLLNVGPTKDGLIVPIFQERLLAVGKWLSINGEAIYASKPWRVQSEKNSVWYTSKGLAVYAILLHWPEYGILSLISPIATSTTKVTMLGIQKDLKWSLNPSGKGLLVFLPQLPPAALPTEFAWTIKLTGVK

[13] = Inhibition of bovine liver beta-glucosidase assessed as reduction of p-nitrophenol release using p-nitrophenyl glycoside as substrate by spectrophotometric analysis; design: species or system Bos taurus
[14] = Inhibition of rice alpha-glucosidase assessed as reduction of p-nitrophenol release using p-nitrophenyl glycoside as substrate by spectrophotometric analysis; design: species or system Oryza sativa
[15] = species on record: Bos taurus; assay: Inhibition of bovine liver beta-glucuronidase assessed as reduction of p-nitrophenol release using p-nitrophenyl-glycoside as substrate at 1000 uM by spectrophotometric analysis relative to control
[16] = species on record: Bos taurus; assay: Inhibition of bovine liver beta-glucosidase assessed as reduction of p-nitrophenol release using p-nitrophenyl glycoside as substrate at 1000 uM by spectrophotometric analysis relative to control
[17] = molecular target: Beta-glucuronidase (Escherichia coli (strain K12)) (UniProt P05804); assay: Inhibition of Escherichia coli beta-glucuronidase assessed as reduction of p-nitrophenol release using p-nitrophenyl-glycoside as substrate at 1000 uM by spectrophotometric analysis relative to control
[18] = Inhibition of human lysosomal beta-glucosidase assessed as reduction of p-nitrophenol release using p-nitrophenyl glycoside as substrate by spectrophotometric analysis
[19] = test system: Aspergillus niger; assay: Inhibition of Aspergillus niger amyloglucosidase assessed as reduction of p-nitrophenol release using p-nitrophenyl-glycoside as substrate at 1000 uM by spectrophotometric analysis relative to control
[20] = test system: Helix pomatia; assay: Inhibition of snail beta-mannosidase assessed as reduction of p-nitrophenol release using p-nitrophenyl glycoside as substrate at 1000 uM by spectrophotometric analysis relative to control
[21] = test system: Prunus dulcis; assay: Inhibition of almond beta-glucosidase assessed as reduction of p-nitrophenol release using p-nitrophenyl glycoside as substrate at 1000 uM by spectrophotometric analysis relative to control
[22] = molecular target: Alpha-glucosidase (Saccharomyces cerevisiae S288c) (UniProt P53341+P38158+P07265); assay: Inhibition of yeast alpha-glucosidase assessed as reduction of p-nitrophenol release using p-nitrophenyl glycoside as substrate at 1000 uM by spectrophotometric analysis relative to control; type: protein assay
[23] = test system: Oryza sativa; assay: Inhibition of rice alpha-glucosidase assessed as reduction of p-nitrophenol release using p-nitrophenyl glycoside as substrate at 1000 uM by spectrophotometric analysis relative to control
[24] = species on record: Bos taurus; assay: Inhibition of bovine liver beta-galactosidase assessed as reduction of p-nitrophenol release using p-nitrophenyl glycoside as substrate at 1000 uM by spectrophotometric analysis relative to control
[25] = species on record: Rattus norvegicus; assay: Inhibition of rat intestinal maltase assessed as D-glucose release using maltose as substrate at pH 6.8 at 1000 uM by colorimetric method relative to control

Chain of Alpha-galactosidase (Coffea arabica) (Q42656 16-378 limits assumed): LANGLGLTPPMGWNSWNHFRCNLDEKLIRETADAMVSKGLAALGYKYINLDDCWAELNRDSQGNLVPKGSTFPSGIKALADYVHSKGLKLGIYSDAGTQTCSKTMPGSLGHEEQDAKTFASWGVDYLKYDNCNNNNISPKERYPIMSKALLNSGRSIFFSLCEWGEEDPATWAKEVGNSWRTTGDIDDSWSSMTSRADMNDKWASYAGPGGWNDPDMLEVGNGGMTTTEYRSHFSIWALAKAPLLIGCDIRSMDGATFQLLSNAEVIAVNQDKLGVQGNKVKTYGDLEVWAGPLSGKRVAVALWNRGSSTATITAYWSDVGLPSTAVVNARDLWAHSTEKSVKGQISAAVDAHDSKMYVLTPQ
Chain of Beta-glucuronidase (P05804 whole entry): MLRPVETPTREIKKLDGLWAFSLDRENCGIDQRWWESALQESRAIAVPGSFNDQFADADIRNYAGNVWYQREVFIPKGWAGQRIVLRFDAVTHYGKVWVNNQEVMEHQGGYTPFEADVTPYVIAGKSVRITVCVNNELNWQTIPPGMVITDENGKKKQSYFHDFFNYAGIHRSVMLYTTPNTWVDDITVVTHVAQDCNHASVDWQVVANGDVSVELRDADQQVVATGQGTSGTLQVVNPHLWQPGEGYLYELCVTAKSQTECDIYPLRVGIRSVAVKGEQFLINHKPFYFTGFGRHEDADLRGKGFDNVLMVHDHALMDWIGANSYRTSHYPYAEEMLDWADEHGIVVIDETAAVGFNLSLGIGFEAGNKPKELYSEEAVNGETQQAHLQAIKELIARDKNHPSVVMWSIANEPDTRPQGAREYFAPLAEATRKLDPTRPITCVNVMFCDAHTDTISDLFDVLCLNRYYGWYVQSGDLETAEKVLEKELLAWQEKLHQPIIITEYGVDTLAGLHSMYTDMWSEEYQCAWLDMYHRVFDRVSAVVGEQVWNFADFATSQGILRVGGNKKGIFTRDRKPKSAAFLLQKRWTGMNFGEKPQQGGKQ
Chain of Beta-glucuronidase (Escherichia coli (strain K12)) (P05804 whole entry, looked up): as the sequence (P05804 whole entry) above

Structure (SMILES): O=C1CCCC=C1CCCCCCC[C@H]1N[C@H](CO)[C@@H](O)[C@@H]1O
- pIC50 [1]: 7.52
- pIC50 [2]: 3.55
- inhibition [3]: 15.1%
- pIC50 [4]: 4.52
- inhibition [5]: 19.6%
- pIC50 [6]: 4.18
- pIC50 [7]: 5.01
- pIC50 [8]: 5.48
- IC50 [9]: 21.6 µM
- inhibition [10]: 35.1%
- inhibition [11]: 0.8%
- inhibition [12]: 16.8%
- pIC50 [13]: 6.92
- pIC50 [14]: 3.92
- inhibition [15]: 46.1%

Structure (SMILES): OC[C@H]1N[C@H](CCCCCCCc2ccccc2)[C@@H](O)[C@@H]1O
- pIC50 [1]: 7.68
- pIC50 [2]: 3.43
- inhibition [3]: 8.4%
- pIC50 [4]: 4.44
- inhibition [5]: 5%
- pIC50 [6]: 5.80
- pIC50 [7]: 5.00
- pIC50 [8]: 4.01
- IC50 [9]: 33 µM
- inhibition [10]: 43.9%
- inhibition [11]: 10.7%
- inhibition [12]: 7.9%
- pIC50 [13]: 6.92
- pIC50 [14]: 5.20
- inhibition [15]: 9.8%

Structure (SMILES): CC(C)(C)c1ccc(CCCCCC[C@@H](O)[C@@H]2N[C@@H](CO)[C@H](O)[C@H]2O)cc1
- pIC50 [1]: 4.12
- inhibition [16]: 40%
- inhibition [3]: 0%
- inhibition [17]: 23.5%
- pIC50 [18]: 5.20
- inhibition [19]: 8.7%
- inhibition [20]: 0.8%
- inhibition [21]: 21.8%
- inhibition [5]: 1%
- pIC50 [6]: 4.66
- inhibition [10]: 4.6%
- inhibition [11]: 0%
- inhibition [12]: 0%
- inhibition [22]: 11.4%
- pIC50 [14]: 4.68
- inhibition [15]: 18.4%

Structure (SMILES): OC[C@@H]1N[C@@H]([C@H](O)CCCCCCc2ccc(Cl)cc2)[C@H](O)[C@H]1O
- inhibition [16]: 21%
- inhibition [3]: 0.8%
- inhibition [17]: 4.8%
- pIC50 [18]: 3.96
- inhibition [19]: 8.7%
- inhibition [20]: 0.4%
- inhibition [21]: 9.6%
- inhibition [5]: 1.3%
- pIC50 [6]: 4.55
- inhibition [10]: 0%
- inhibition [11]: 0%
- inhibition [12]: 0%
- inhibition [22]: 11.4%
- inhibition [23]: 34%
- inhibition [24]: 37.3%
- inhibition [15]: 0%

Structure (SMILES): Cc1ccc(CCCCCC[C@@H](O)[C@H]2N[C@H](CO)[C@@H](O)[C@@H]2O)cc1
- pIC50 [1]: 8.70
- pIC50 [2]: 4.49
- inhibition [3]: 5.9%
- pIC50 [4]: 4.64
- inhibition [25]: 10.5%
- pIC50 [18]: 5.96
- inhibition [5]: 0.9%
- pIC50 [7]: 7.09
- pIC50 [8]: 4.89
- inhibition [10]: 7%
- inhibition [11]: 0%
- inhibition [12]: 0%
- pIC50 [13]: 8.52
- inhibition [22]: 23.5%
- inhibition [23]: 15%
- inhibition [15]: 0%

Structure (SMILES): Cl.OC[C@H]1N[C@H]([C@H](O)CCCCCCc2ccc(F)c(F)c2)[C@@H](O)[C@@H]1O
- pIC50 [1]: 8.40
- pIC50 [2]: 4.80
- inhibition [3]: 16.6%
- pIC50 [4]: 4.96
- inhibition [25]: 42.5%
- pIC50 [18]: 5.57
- inhibition [5]: 17.2%
- pIC50 [7]: 6.28
- pIC50 [8]: 4.68
- IC50 [9]: 87 µM
- inhibition [10]: 27%
- inhibition [11]: 1.4%
- pIC50 [13]: 8.15
- inhibition [23]: 43.4%
- inhibition [15]: 4.3%

Structure (SMILES): CC(C)(C)c1ccc(CCCCCC[C@H](O)[C@H]2N[C@H](CO)[C@@H](O)[C@@H]2O)cc1
- pIC50 [1]: 7.85
- pIC50 [2]: 4.02
- inhibition [3]: 0%
- pIC50 [4]: 4.20
- inhibition [25]: 14.1%
- pIC50 [18]: 5.49
- inhibition [5]: 0.9%
- pIC50 [7]: 6.44
- pIC50 [8]: 4.64
- inhibition [10]: 6.2%
- inhibition [11]: 0%
- inhibition [12]: 0%
- pIC50 [13]: 7.30
- inhibition [22]: 27.6%
- inhibition [23]: 48.6%
- inhibition [15]: 0%

Structure (SMILES): CC(C)(C)c1ccc(CCCCCC[C@@H](O)[C@H]2N[C@H](CO)[C@@H](O)[C@@H]2O)cc1.Cl
- pIC50 [1]: 8.70
- pIC50 [2]: 4.85
- inhibition [3]: 8.7%
- pIC50 [4]: 4.80
- inhibition [25]: 48.7%
- pIC50 [18]: 6.09
- inhibition [5]: 5.5%
- pIC50 [7]: 7.19
- pIC50 [8]: 5.54
- IC50 [9]: 57 µM
- inhibition [10]: 4.8%
- inhibition [11]: 2.3%
- pIC50 [13]: 8.40
- inhibition [23]: 36.6%
- inhibition [15]: 4.3%

Structure (SMILES): Cl.OC[C@H]1N[C@H]([C@H](O)CCCCCCc2ccc(F)cc2)[C@@H](O)[C@@H]1O
- pIC50 [1]: 8.30
- pIC50 [2]: 4.70
- inhibition [3]: 13.9%
- pIC50 [4]: 4.52
- inhibition [25]: 24.2%
- pIC50 [18]: 5.48
- inhibition [5]: 8.6%
- pIC50 [7]: 6.82
- pIC50 [8]: 4.44
- IC50 [9]: 83 µM
- inhibition [10]: 4.1%
- inhibition [11]: 0%
- pIC50 [13]: 8.05
- inhibition [23]: 10.2%
- inhibition [15]: 7.1%
